In US9464064B2, “HCV helicase inhibitors and methods of use thereof” (University of Kansas, priority 2011, dated 2016):

Target: T1, HCV NS3 helicase NS3h_1b(con1) (Hepatitis C virus genotype 1b, UniProt Q9WMX2)
T1 construct: truncated C-terminally His-tagged NS3 proteins lacking the N-terminal protease, called NS3h; His-tag (C); made in house
Assay: MBHA screen of NCI mechanistic set library at 20 μM (percent inhibition, compound interference)
Assay type: biochemical
Conditions: compounds at 20 μM; for Inh. (%) (Inhibition): calculated from Equation 1
Outline: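 Molecular beacon-based DNA unwinding assay; compounds screened at 20 μM in triplicate, with DMSO-only negative and 500 nM dT20 positive controls. Fluorescence (ex 643/em 670 nm) was read before and 30 min after adding ATP to 1 mM. Percent inhibition came from the change relative to DMSO controls; interference from pre-ATP fluorescence versus DMSO controls.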

[1] = assay interference calculated with Equation 2 (fluorescence vs DMSO-only controls before ATP)
[2] = MBHA with DNA substrate, assay interference calculated with Equation 2

T1 sequence (Q9WMX2 1192-1657): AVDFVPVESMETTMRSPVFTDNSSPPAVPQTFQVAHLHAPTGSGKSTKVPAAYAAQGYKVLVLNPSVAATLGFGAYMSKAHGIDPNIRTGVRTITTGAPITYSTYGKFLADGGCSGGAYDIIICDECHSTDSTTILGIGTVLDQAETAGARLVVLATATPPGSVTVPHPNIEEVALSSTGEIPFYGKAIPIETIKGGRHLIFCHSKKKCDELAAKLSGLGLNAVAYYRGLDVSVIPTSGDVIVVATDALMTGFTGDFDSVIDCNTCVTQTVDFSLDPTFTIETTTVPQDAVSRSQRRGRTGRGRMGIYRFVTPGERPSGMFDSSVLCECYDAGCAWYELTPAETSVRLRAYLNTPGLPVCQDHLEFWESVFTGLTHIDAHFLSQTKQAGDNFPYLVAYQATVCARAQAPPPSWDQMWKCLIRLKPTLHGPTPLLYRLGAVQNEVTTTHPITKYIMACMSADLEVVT

| SMILES | Inh. (%) (Inhibition) (MBHA with a DNA substrate) | Int.* (Ratio) (Interference) [1] | Int.* (Ratio) (Interference) [2] | Inh. (%) (Inhibition) (MBHA with DNA substrate) | Inh. (%) (Inhibition) (MBHA with DNA substrate, 20 µM) |
| --- | --- | --- | --- | --- | --- |
| COC(=O)c1ccc(NCc2cc(O)ccc2O)cc1 [Compound 654705] | −6.0% | 1.02 Ratio |  |  |  |
| COc1ccc(-c2csc(=[N+]3CCCCC3)s2)cc1.O=S(=O)(O)O [Compound 302358] |  |  | 1.05 Ratio | 1.1% |  |
| O=C1OC(c2ccco2)=N/C1=C\c1ccc(Cl)c(Cl)c1 [Compound 202000] | −5.7% | 0.99 Ratio |  |  |  |
| O=C(c1nc2ccc(Cl)cc2[nH]c1=O)C(O)c1ccc2c(c1)OCO2 (stereo not shown) [Compound 642649] |  |  | 1.05 Ratio | −11.2% |  |
| CC(C)(C)[Si](C)(C)OCC1CCC(n2cnc3c(N)ncnc32)O1 (stereo not shown) [Compound 616355] |  |  | 1.01 Ratio | −12.6% |  |
| Cc1cc(O)c(C(C)C)cc1C1(c2cc(C(C)C)c(O)cc2C)OC(=O)c2ccccc21 [Compound 2186] | −22.0% | 1.01 Ratio |  |  |  |
| CC1(C)CC2=NO[Se]3=C2C(=NO3)C1 [Compound 328587] |  |  | 0.95 Ratio | −1.3% |  |
| COc1cc(O)c(Cc2ccccc2O)c(O)c1C(=O)CCc1ccccc1 [Compound 241906] | −6.2% | 0.88 Ratio |  |  |  |
| Cc1nnc(-n2c(O)cc(=O)n(-c3ccccc3)c2=S)nc1/C=C/c1ccc(N(C)C)cc1 [Compound 698031] |  |  | 0.98 Ratio | −16.0% |  |
| C/C(=N\N=C(/[Se])N1CC2CCC(CC2)C1)c1ccccn1 [Compound 323241] | 10.7% | 0.90 Ratio |  |  |  |
| NC(=O)c1c([N+](=O)[O-])cc(C(F)(F)F)cc1[N+](=O)[O-] [Compound 622640] |  |  | 1.10 Ratio | −13.4% |  |
| COc1ccc(/C(=N/O)C(c2ccc(OC)cc2)C2C(=O)Oc3ccccc32)cc1 (stereo not shown) [Compound 641607] |  |  | 1.03 Ratio | 29.4% |  |
| COc1ccc(NC(=O)CC(=O)N2N=C(C)C(N=Nc3ccc(S(=O)(=O)c4ccc(N=NC5C(=O)N(C(=O)CC(=O)Nc6ccc(OC)cc6)N=C5C)cc4)cc3)C2=O)cc1 (stereo not shown) [Compound 677392] |  |  | 1.00 Ratio | −18.1% |  |
| CCCNC1=C(C)C(=O)C2=C(C1=O)[C@H](COC(N)=O)[C@]1(OC)[C@@H]3N[C@@H]3CN21 [Compound 123115] | −25.7% | 0.96 Ratio |  |  |  |
| N#CC1CC(c2ccccc2)Nc2cc(Cl)ccc2N1 (stereo not shown) [Compound 155595] |  |  | 1.17 Ratio | 2.3% |  |
| CCN(CC)CCCC(C)NC(=O)c1ccc2c(c1)C(=O)c1ccccc1C2=O.Cl (stereo not shown) [Compound 331757] |  |  | 0.93 Ratio | −16.9% |  |
| Nc1ncnc2c1ncn2C1OC(CO)C(O)C1O (stereo not shown) [Compound 70422] |  |  | 0.85 Ratio |  | 33.9% |
| Cc1cc2c(c3oc(C4(C)OC4C4OC4C)cc(=O)c13)C(=O)c1c(O)c(C3CC(C)(N(C)C)C(O)C(C)O3)cc(C3CC(N(C)C)C(O)C(C)O3)c1C2=O (stereo not shown) [Compound 70929] |  |  | 0.20 Ratio | 32.1% |  |
| BrC(/C=N/Nc1nnc(-c2ccccc2)c(-c2ccccc2)n1)C(Br)c1ccccc1 (stereo not shown) [Compound 640638] |  |  | 0.93 Ratio | −7.0% |  |
| C=C1CC(COc2cc(=O)oc3ccccc23)(c2ccccc2)OC1=O (stereo not shown) [Compound 668270] |  |  | 0.83 Ratio | 28.1% |  |
| CC1=CC23C(COC(=O)C24CO4)C(C(=O)O)=CC3C1C.NCc1ccccc1 (stereo not shown) [Compound 136037] |  |  | 1.00 Ratio | 3.9% |  |
| COc1cc(NC(C)CCCN)c2ncccc2c1.O=P(O)(O)O.O=P(O)(O)O (stereo not shown) [Compound 149765] |  |  | 0.94 Ratio | 13.2% |  |
| CN(C)CCN1C(=O)c2cccc3cc(N)cc(c23)C1=O [Compound 308847] |  |  | 1.05 Ratio | −13.3% |  |
| O=[Se]([O-])[O-].[Na+].[Na+] [Compound 347466] |  |  | 0.89 Ratio | 27.4% |  |
| O=C1/C(=C/c2cccs2)Oc2ccccc21 [Compound 56544] |  |  | 0.96 Ratio | 1.5% |  |
| NC1=NCN([C@@H]2O[C@H](CO)[C@@H](O)[C@H]2O)C(=O)N1 [Compound 264880] | −43.3% | 1.28 Ratio |  |  |  |
| O=C1N[C@@H]2C(=C[C@H](O)[C@@H](O)[C@H]2O)c2cc3c(c(O)c21)OCO3 [Compound 266535] | −5.9% | 0.87 Ratio |  |  |  |

| SMILES | Inh. (%) (Inhibition) (MBHA with a DNA substrate) | Int.* (Ratio) (Interference) [1] | Int.* (Ratio) (Interference) [2] | Inh. (%) (Inhibition) (MBHA with DNA substrate) | Inh. (%) (Inhibition) (MBHA with DNA substrate, 20 µM) |
| --- | --- | --- | --- | --- | --- |
| c1coc(CNc2ncnc3[nH]ncc23)c1 [Compound 1620] | −3.0% | 1.06 Ratio |  |  |  |
| COc1ccc2c(c1)CCc1c-2n[nH]c1-c1[nH]nc2c1CCc1cc(OC)ccc1-2 [Compound 371846] |  |  | 0.86 Ratio | 2.1% |  |
| CC1=C2C(=CC(C)(C)[C@@H]2O)C(=O)[C@](C)(O)C12CC2 [Compound 400978] |  |  | 1.10 Ratio | 17.9% |  |
| NC1=C(Br)C(=O)c2ncccc2C1=O [Compound 105808] |  |  | 1.14 Ratio | 2.6% |  |
| COc1ccc(C2C=C(c3ccc4c(c3)OCO4)Oc3c2c(=O)oc2ccccc32)cc1OC (stereo not shown) [Compound 211489] | −30.1% | 0.82 Ratio |  |  |  |
| Cc1c(C(=O)C/C(=N/NC(=O)CC#N)C(N)=O)[n+](=O)c2ccccc2n1[O-] [Compound 635542] |  |  | 0.91 Ratio | −12.7% |  |
| OCc1ccc(-c2ccc(-c3ccc(CO)s3)o2)s1 [Compound 652287] | −5.4% | 0.98 Ratio |  |  |  |
| COc1cc2c(cc1Oc1ccc(OC)c3c1CC1c4c(cc(OC)c(OC)c4-3)CCN1C)CC1c3c(cc(OC)c(OC)c3-2)CCN1C (stereo not shown) [Compound 274893] |  |  | 0.88 Ratio | 16.2% |  |
| CCCc1c(Cl)nc(Cl)nc1Cl [Compound 66914] |  |  | 0.91 Ratio | −0.8% |  |
| C=C(C)[C@@H]1CC[C@]2(C)CC[C@]3(C)[C@H](CC[C@@H]4[C@@]5(C)CC[C@H](O)C(C)(C)[C@@H]5CC[C@]43C)[C@@H]12 [Compound 90487] |  |  | 1.18 Ratio | −13.2% |  |
| O=c1c(O)c(-c2ccc(O)c(O)c2)oc2cc(O)ccc12 [Compound 407010] |  |  | 0.90 Ratio | 19.4% |  |
| COC1CC(O[C@H]2CC[C@]3(C=O)[C@H]4CC[C@]5(C)[C@@H](C6=CC(=O)OC6)CC[C@]5(O)[C@@H]4CC[C@]3(O)C2)OC(C)C1O (stereo partly shown) [Compound 7522] | −24.0% | 0.97 Ratio |  |  |  |
| CCCCCC/C=C\CCCCCCCCCc1cccc(OC)c1O [Compound 617540] | −28.4% | 1.11 Ratio |  |  |  |
| Cc1cc(=O)[nH]c(NN2C(Cl)C(=O)C2c2cccc([N+](=O)[O-])c2)n1 (stereo not shown) [Compound 653010] |  |  | 0.88 Ratio | 17.5% |  |
| COc1ccc2cc1Oc1ccc(cc1)CC1c3c(cc(OC)c4c3Oc3cc5c(cc3O4)CCNC5C2)CCN1C (stereo not shown) [Compound 181486] |  |  | 0.50 Ratio | 38.3% |  |
| O=[N+]([O-])c1cc(-c2nc(=S)[nH][nH]2)ccc1O [Compound 635563] | −6.8% | 0.92 Ratio |  |  |  |
| COc1cc(/C=C(\C)c2ccc3c(c2)OCO3)cc(OC)c1OC [Compound 648422] |  |  | 1.02 Ratio | −17.5% |  |
| O=C1Cc2c(-c3ccccc3)cc(-c3cccc(Cl)c3)nc2-c2ccccc2N1 [Compound 684480] | −35.3% | 1.04 Ratio |  |  |  |
| CN/N=C(\C)C(CN1CCCCC1)C(C1=C(O)c2ccccc2OC1)c1ccccc1.Cl (stereo not shown) [Compound 647418] | −24.7% | 1.00 Ratio |  |  |  |
| Cc1cccc(Cl)c1NC(=O)/C=C/c1ccccc1 [Compound 191393] | −6.3% | 1.05 Ratio |  |  |  |
| COc1cc2c(c(OC)c1OC)-c1ccc(OC)c(=O)cc1[C@@H](NC(=O)c1ccccc1)CC2 [Compound 33410] | −28.8% | 1.16 Ratio |  |  |  |
| CCCCn1c2c(n(CCCC)c1=S)-c1c(n(CCCC)c(=S)n1CCCC)SSSS2 [Compound 700582] |  |  | 0.93 Ratio | −16.2% |  |
| COc1ccc(NC(=O)C(=O)/C=C(\O)c2ccccc2)cc1 [Compound 658709] |  |  | 0.90 Ratio | −7.9% |  |
| CC(=O)O[C@@H]1C[C@H]2O[C@@H]3C=C(C)CC[C@]3(C)[C@]1(C)[C@]21CO1 [Compound 267033] |  |  | 1.04 Ratio | 6.7% |  |
| Cc1cn(C2CC(O)C(CO)O2)c(=O)[nH]c1=O (stereo not shown) [Compound 21548] |  |  | 0.98 Ratio | 2.1% |  |
| COc1ccc(/C=C2\Cc3ccccc3C2=O)cc1OC [Compound 643174] |  |  | 1.07 Ratio | −9.6% |  |
